Laboratory results taken from PMC7796031, “Studies of Coumarin Derivatives for Constitutive Androstane Receptor (CAR) Activation” (Molecules, 2020).

What was measured:
db/db mice = assay: In vivo hypoglycemic effect in db/db mice (OGTT, fructosamine, insulin, HOMA-IR); set-up: species or system mouse
Method: Six-week old male C57/BL6 mice (n = 6) were acquired from the Animal Center of the College of Medicine, National Taiwan University (Taipei, Taiwan) and 6-week-old male db/db mice (BKS.Cg-Dock7m +/+ Leprdb/JNarl) (n = 12) were acquired from the National Laboratory Animal Center (Tainan, Taiwan). Experimental animals were allowed to acclimate to the controlled photoperiod (a cycle of 12-h light/12-h dark), humidity (40–60% relative humidity) and temperature (22 ± 2 °C) with ad libitum supply of standard chow diets and drinking water for one week prior to the experimental treatment in accordance with the Guide for the Care and Use of Laboratory Animals (Institute of Laboratory Animal Resources Commission on Life Sciences, 2011). Acclimated animals were randomly separated into three cohorts: control group (C57/BL6 mice treated with vehicle for two weeks, n = 6), db/db group (db/db mice treated with vehicle for two weeks, n = 6), and db/db+SP group (db/db mice treated with 100 mg/kg scoparone for two weeks, n = 6). (IACUC Approval NO.: 20140532; Duration: 2015.01.01–2015.12.31; Ethical Committee: National Taiwan University College of Medicine and College of Public Health Institutional Animal Care and Use Committee (IACUC).)
The control mice or diabetic mice with or without drugs treatment for 2 weeks received an oral glucose challenge (2 g/kg). Mice were under slight anesthesia by an intraperitoneal injection of pentobarbital (50 mg/kg) and blood samples (20–50 μL via orbital sinus at each time point) were collected following: 0, 15, 30, 60, 90, and 120 min after delivery of the glucose load. Blood glucose levels were determined using SURESTEP blood glucose meter (Lifescan). Glucose tolerance was determined and performed as the curve (AUC) and delta AUC (ΔAUC) using Prism 5 software (GraphPad).
To determine the amount of insulin and fructosamine after fasting overnight, blood samples (0.5–0.8 mL) of euthanasia animals were collected. After centrifugation, the serum was analyzed by insulin and fructosamine immunoassay kits according to the respective instructions of the manufacturer (Mercodia AB Inc., Uppsala, Sweden; Hospitex Diagnostics Lp, League City, TX, USA). The homeostasis model assessment of insulin resistance (HOMA-IR) index is calculated with the formula of the values of fasting glucose and insulin divided by 22.5 as previously described.

[1] = target: T1, Constitutive androstane receptor (CAR) (Homo sapiens, UniProt Q14994); assay: In vitro CAR activation screening assay (UGT1A1 promoter gtPBREM-pGL4 luciferase reporter in Hep3B-gtPBREM cells); format: cell-based
T1 construct: The pGL4-gtPBREM plasmid was transfected into Hep3B cells; endogenous in cells
T1 sequence (Q14994 1-352): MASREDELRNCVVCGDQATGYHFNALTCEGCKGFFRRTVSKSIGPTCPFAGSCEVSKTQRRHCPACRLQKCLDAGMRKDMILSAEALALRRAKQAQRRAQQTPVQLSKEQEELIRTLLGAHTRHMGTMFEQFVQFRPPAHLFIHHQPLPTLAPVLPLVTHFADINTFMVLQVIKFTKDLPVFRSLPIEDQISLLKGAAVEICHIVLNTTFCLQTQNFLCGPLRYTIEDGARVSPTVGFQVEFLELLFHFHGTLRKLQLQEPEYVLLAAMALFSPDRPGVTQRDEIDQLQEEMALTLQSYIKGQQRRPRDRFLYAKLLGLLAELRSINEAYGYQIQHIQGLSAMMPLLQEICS
Excerpt: Until now, there is no commercially available high throughput screening method for CAR activation. Traditionally, CAR activation can be detected in western blots by its downstream signals such as UGT1A1, MRP2 or CYP2B6. […] However, this method was slow and pricy. In order to rapidly screen all the compounds for CAR activation at less cost, an in vitro CAR activation screening assay was developed: DNA was extracted from Hep3B cells and UGT1A1 promoter was obtained using PCR amplification. Ligation between UGT1A1 promoter and pGL4 vector was performed and the plasmid was amplified via E. coli replication. The desired plasmid was extracted from E. coli and transfected into Hep3B. The desired colony bearing UGT1A1 promoter-pGL4 plasmid was selected by neomycin. CAR activation was measured by adding tested compounds to Hep3B for several hours and luminescence was measured. Higher activation will get higher luminescence readout. This assay system was validated with two different CAR agonists: CITCO (direct agonist) and scoparone (an indirect agonist). […] Different concentration of scoparone at 1, 5, 10 and 20 μM had been tested either for luciferase assay or downstream UGT1A1 and MRP2 expression (data not shown) and 10 μM was selected to be the best condition for the following work.
After successfully establishing the in vitro assay, all of the coumarin compounds were subjected to the screening (at 10 μM) and their SAR was discussed. Although the reporter system can successfully identify CAR-activating compounds under 8 h and display better efficiency and sensitivity compared with western blots, it only presented a medium luciferase response. According to previous studies, CITCO was reported to only moderately enhance human CAR (less than 2-fold), compared with the enhance provided by TCPOBOP for murine CAR (5- to 10-fold) in luciferase reporter assays. […] Another possibility for the medium response in our reporter system might be the contribution of the whole gtPBREM element which might include response-suppressive elements that was used and the single nucleotide variation of DR3 element which was reported to slightly reduce the original UGT1A1 activity.
The genomic DNA was isolated from Hep3B cells using Wizard® Genomic DNA Purification Kit (Promega, Fitchburg, WI, USA). The promoter region of UGT1A1 gene, gtPBREM element, was amplified by AccuPrime^TM Taq DNA Polymerase High Fidelity Kit (Invitrogen, MA, USA). The sequence of the amplified element was confirmed by DNA sequencing company and cloned into pGL4 luciferase reporter vector. The pGL4-gtPBREM plasmid was transfected into Hep3B cells. The stable pGL4-gtPBREM transfected Hep3B cells, Hep3B-gtPBREM cells, were established after G418 selection. The luciferase activity represented of CAR activation ability was measured using individual established clone. Further, CAR-shRNA was obtained from the Genomic Research Center and transfected into Hep3B-gtPBREM cells. The transient transfected shCAR-Hep3B-gtPBREM cells were used for further luciferase assays.
The Hep3B-gtPBREM cells and shCAR-Hep3B-gtPBREM cells (1.5 × 10^5 cells/well) were seeded into 12-well plates for overnight then pre-determined concentration compounds were added for desired time. After treatment, transfected cells were washed twice in PBS, lysated with 1× passive lysis buffer and luciferase intensity of equal amount of cell lysate was measured by a Synergy HT Multi-Mode Microplate Reader (BioTek, Winooski, VT, USA).

[2] = db/db mice, 100 mg/kg P.O., two weeks

| luciferase activity ([1]; assay validation, positive control, indirect agonist) | increased CAR activation fold ([1]; 10 μM, compared to scoparone) [%] | activation at 10 µM ([1]; Table 2, 10 μM, (luminescence of compound − luminescence of scoparone)/luminescence of scoparone × 100%, read-out: CAR Activation Fold) [%] | SMILES | HOMA-IR (db/db mice; [2]) | insulin level (db/db mice; [2]) | level of fructosamine (db/db mice; [2]) | oral glucose tolerance test (OGTT) (db/db mice; [2]) | in vivo efficacy (blood sugar lowering) (db/db mice; even by intraperitoneal injection) |
| --- | --- | --- | --- | --- | --- | --- | --- | --- |
| enhance luciferase activity |  |  | COc1cc2ccc(=O)oc2cc1OC [Compound 39, scoparone] | did not change | did not change | decreased | significant improvement |  |
|  | 50 | 50 | CC(C)=CCOc1cc2ccc(=O)oc2cc1OCC=C(C)C [Compound 50, 6,7-diprenoxycoumarin] |  |  |  |  | didn’t show any in vivo efficacy |
